{"source": "patent US4782092A", "about": "“5,8-dichloro-4-hydroxy-1-[(aminoalkyl) amino]-9,10-anthracenediones, pharmaceutical compositions and use” (Mid-America Cancer Center, priority 1986, dated 1988)", "key": {"L1210 Leukemia": {"tested_on": "L1210 Leukemia", "experiment": "growth-inhibitory effects against mouse tumor line L1210 in suspension cell culture", "format": "cell-based", "conditions": "L1210, 72 h", "experimental": "In another test protocol, growth-inhibitory effects are measured against the mouse tumor line L1210 in suspension cell culture. Cell cultures were initiated at a density of 50,000 cells/ml in medium RPMI […] supplemented with 10 percent fetal calf serum. Composition of this culture medium and details of the culture procedure follow the published method (Journal of the National Cancer Institute 36, 405-415, 1966). Cultures are maintained at 37 degrees in stationary suspension culture under a 95 percent air +5 percent CO2 atmosphere. Test compounds are added to treated cultures at the time of initiation, and are present continually. After 72 hours, 40-fold dilutions of drug-treated and untreated control cultures are prepared in 0.9 percent NaCl solution, and cells are counted on an electronic particle counter. The growth-inhibitory effects are expressed as ID50 values, namely test compound inhibitory dosages or concentrations required to decrease cell count in treated cultures to 50 percent of the cell count of untreated control cultures."}, "[1]": {"tested_on": "Alcaligenes viscolactis (ATCC-21698)", "experiment": "in vitro antibacterial/antifungal (ABF) agar-disk diffusion assay, Alcaligenes viscolactis", "format": "cell-based", "conditions": "read-out: Inhibition Zone Diameter", "experimental": "(§1) One test protocol is the in vitro antibacterial/antifungal (ABF) test. Compounds are tested for antimicrobial activity in an agar-disk diffusion assay, a standard microbiological technique for testing antibiotics. After incubation of each culture with a test compound, a zone of inhibition is determined. The zone diameter (mm) of active compounds ranges from a minimum of 14 mm to as high as 18 mm, with a greater diameter reflecting higher activity. For convenience, values are reported for three gram-negative bacterial species, Alcaligenes viscolactis ATCC 21698, Escherichia coli Tol and PD04863, Branhamella catarrhalis PD03596; and one gram-positive bacterium, Bacillus subtilis PD04555."}, "Escherichia coli Tol": {"tested_on": "Escherichia coli Tol", "experiment": "in vitro antibacterial/antifungal (ABF) agar-disk diffusion assay, Escherichia coli Tol", "format": "cell-based", "conditions": "read-out: Inhibition Zone Diameter", "experimental": "as §1"}, "Escherichia coli PD08463": {"tested_on": "Escherichia coli PD08463", "experiment": "in vitro antibacterial/antifungal (ABF) agar-disk diffusion assay, Escherichia coli PD08463", "format": "cell-based", "conditions": "5.0 mg/ml, read-out: Inhibition Zone Diameter", "experimental": "as §1"}, "[2]": {"tested_on": "Branhamella catarrhalis PD03596", "experiment": "in vitro antibacterial/antifungal (ABF) agar-disk diffusion assay, Branhamella catarrhalis", "format": "cell-based", "conditions": "Moraxella catarrhalis, 5.0 mg/ml, read-out: Inhibition Zone Diameter", "experimental": "as §1"}, "[3]": {"tested_on": "Bacillus subtilis PD04555", "experiment": "in vitro antibacterial/antifungal (ABF) agar-disk diffusion assay, Bacillus subtilis", "format": "cell-based", "conditions": "read-out: Inhibition Zone Diameter", "experimental": "as §1"}, "P388 Leukemia": {"tested_on": "P388 Leukemia", "experiment": "in vivo lymphocytic leukemia P388 test", "design": "species or system mice (CD2 F1)", "conditions": "IP/IP, QOID × 5", "experimental": "Another test protocol is the in vivo lymphocytic leukemia P388 test. The animals used are either male or female CD2 F1 mice, six or seven animals per test group. The tumor transplant is by intraperitoneal injection of dilute ascitic fluid containing cells of lymphocytic leukemia P388. The test compounds are administered intraperitoneally once daily for five consecutive days at various doses following tumor inoculation. The animals are weighed and survivors are recorded on a regular basis for 30 days. A compound is designated \"toxic\" if, at a given dose, all animals died prior to four days after the first injection of drug. A ratio of survival time for treated (T)/control (C) animals is calculated. A criterion for efficacy is a ratio T/C times 100 greater than or equal to 125. See Cancer Chemotherapy Reports, Part 3, 3, 1 (1972) for a comprehensive discussion of the protocol."}, "B16 Melanoma": {"tested_on": "B16 Melanoma", "experiment": "solid tumor B16 melanoma in mice", "format": "in vivo, mice (B6C3F1)", "conditions": "IP/IP, QOID × 9", "experimental": "Another test protocol utilizes the solid tumor B16 melanoma in mice. The tumor is inoculated by intraperitoneal injection. The test compounds are administered intraperitoneally once daily for nine consecutive days at various doses following tumor inoculation. A ratio of survival time for treated (T)/control (C) animals is calculated. A criterion for efficacy is a ratio T/C times 100 greater than or equal to […]. See Cancer Therapy Reviews, 7,167(1980) and references cited therein for further details and interpretation of the test.\n*Procedure described in Cancer Chemotherapy Reviews, 7, 167 (1980) and\nreferences cited therein."}, "[4]": {"conditions": "Test 1, read-out: Molar Concentration Required for 50% Inhibition of Growth (ID50)"}, "[5]": {"conditions": "Test 2, read-out: Molar Concentration Required for 50% Inhibition of Growth (ID50)"}, "[6]": {"conditions": "25 mg/kg, listed as 5,8-Dichloro-4-hydroxy-1-[ [2-[(2-hydroxyethyl)aminoethyl]amino]-7,10-anthracene"}, "[7]": {"conditions": "50 mg/kg, listed as 5,8-Dichloro-4-hydroxy-1-[ [2-[(2-hydroxyethyl)aminoethyl]amino]-7,10-anthracene"}, "[8]": {"conditions": "100 mg/kg, listed as 5,8-Dichloro-4-hydroxy-1-[ [2-[(2-hydroxyethyl)aminoethyl]amino]-7,10-anthracene"}}, "note": "Where “and” joins values, the source holds several entries; their conditions need not be identical. Identical values can stand only once. Like-named read-outs stand apart in the source and are kept apart here."}
{"smiles": "CN(C)CCNc1ccc(O)c2c1C(=O)c1c(Cl)ccc(Cl)c1C2=O", "note": "[5,8-dichloro-4-hydroxy-1-[2-(dimethylamino)ethyl]amino-9,10-anthracenedione]", "values": [{"measurement": "IC50", "setting": "L1210 Leukemia; [4]", "value": 0.0919, "unit": "µM"}, {"measurement": "IC50", "setting": "L1210 Leukemia; [5]", "value": 0.0809, "unit": "µM"}]}
{"smiles": "O=C1c2c(O)ccc(NCCNCCO)c2C(=O)c2c(Cl)ccc(Cl)c21", "note": "[5,8-dichloro-4-hydroxy-1-[[2-[(2-hydroxyethyl)aminoethyl]amino]]-9,10-anthracenedione]", "values": [{"measurement": "zone of inhibition at 1000 µg/mL", "setting": "[1]; ATCC21698, 1.0 mg/ml", "value": 14, "unit": "mm"}, {"measurement": "zone of inhibition at 5000 µg/mL", "setting": "[1]; ATCC21698, 5.0 mg/ml", "value": 15, "unit": "mm"}, {"measurement": "zone of inhibition at 1000 µg/mL", "setting": "Escherichia coli Tol; 1.0 mg/ml", "value": 15, "unit": "mm"}, {"measurement": "zone of inhibition at 5000 µg/mL", "setting": "Escherichia coli Tol; 5.0 mg/ml", "value": 18, "unit": "mm"}, {"measurement": "zone of inhibition at 5000 µg/mL", "setting": "Escherichia coli PD08463", "value": 14, "unit": "mm"}, {"measurement": "zone of inhibition at 5000 µg/mL", "setting": "[2]", "value": 14, "unit": "mm"}, {"measurement": "zone of inhibition at 1000 µg/mL", "setting": "[3]; 1.0 mg/ml", "value": 14, "unit": "mm"}, {"measurement": "zone of inhibition at 5000 µg/mL", "setting": "[3]; 5.0 mg/ml", "value": 16, "unit": "mm"}, {"measurement": "IC50", "setting": "L1210 Leukemia; [4]", "value": 0.0866, "unit": "µM"}, {"measurement": "IC50", "setting": "L1210 Leukemia; [5]", "value": 0.111, "unit": "µM"}, {"measurement": "T/C × 100", "setting": "P388 Leukemia; 6.25 mg/kg", "value": 154, "unit": "%"}, {"measurement": "T/C × 100", "setting": "P388 Leukemia; 12.5 mg/kg", "value": 146, "unit": "%"}, {"measurement": "cures", "setting": "P388 Leukemia; 25 mg/kg", "value": "cures"}, {"measurement": "T/C × 100", "setting": "P388 Leukemia; [6]", "value": "242% and 163%"}, {"measurement": "T/C × 100", "setting": "P388 Leukemia; [7]", "value": "175% and 188% and 177%"}, {"measurement": "T/C × 100", "setting": "P388 Leukemia; [8]", "value": "235% and 202%"}, {"measurement": "T/C × 100", "setting": "B16 Melanoma; 6.25 mg/kg", "value": 166, "unit": "%"}, {"measurement": "T/C × 100", "setting": "B16 Melanoma; 12.5 mg/kg", "value": 172, "unit": "%"}, {"measurement": "cures", "setting": "B16 Melanoma; 12.5 mg/kg", "value": "cures"}, {"measurement": "T/C × 100", "setting": "B16 Melanoma; 20 mg/kg", "value": 224, "unit": "%"}, {"measurement": "cures", "setting": "B16 Melanoma; 25 mg/kg", "value": "cures"}, {"measurement": "T/C × 100", "setting": "B16 Melanoma; [6]", "value": "199% and 130%"}, {"measurement": "T/C × 100", "setting": "B16 Melanoma; 40 mg/kg", "value": 231, "unit": "%"}, {"measurement": "cures", "setting": "B16 Melanoma; 40 mg/kg", "value": "cures"}, {"measurement": "cures", "setting": "B16 Melanoma; 50 mg/kg", "value": "cures"}, {"measurement": "T/C × 100", "setting": "B16 Melanoma; [7]", "value": "252% and 143%"}, {"measurement": "T/C × 100", "setting": "B16 Melanoma; 80 mg/kg", "value": 271, "unit": "%"}, {"measurement": "cures", "setting": "B16 Melanoma; 80 mg/kg", "value": "cures"}, {"measurement": "cures", "setting": "B16 Melanoma; 100 mg/kg", "value": "cures"}, {"measurement": "T/C × 100", "setting": "B16 Melanoma; [8]", "value": "270% and 191%"}, {"measurement": "T/C × 100", "setting": "B16 Melanoma; 160 mg/kg", "value": 326, "unit": "%"}, {"measurement": "T/C × 100", "setting": "B16 Melanoma; 200 mg/kg, listed as 5,8-Dichloro-4-hydroxy-1-[ [2-[(2-hydroxyethyl)aminoethyl]amino]-7,10-anthracene", "value": "180% and 172%"}, {"measurement": "T/C × 100", "setting": "B16 Melanoma; 400 mg/kg", "value": 190, "unit": "%"}]}
